Here are results for 4 compounds from patent publication US7026527B2, “Plant methionine synthase gene and methods for increasing the methionine content of the seeds of plants” (priority 1995, dated 2006).

The test system of test [1] is E. coli strain Gif106M1 transformed with pBT436. The test is classed as cell-based. The note with it: M9 media with arginine, isoleucine, ampicillin. The source says: To establish that the cloned lysC gene was functional, pBT436 was transformed into E. coli strain Gif106M1 (E. coli Genetic Stock Center strain CGSC-5074) which has mutations in each of the three E. coli AK genes [Theze et al., J. Bacteriol., (1974), 117, 133-143|. This strain lacks all AK activity and therefore requires diaminopimelate (a precursor to lysine which is also essential for cell wall biosynthesis), threonine and methionine.
M9 media [see Sambrook et al. (1989) Molecular Cloning: A Laboratory Manual, Cold Spring Harbor Laboratory Press| supplemented with the arginine and isoleucine, required for Gif106M1 growth, and ampicillin, to maintain selection for the pBT436 plasmid, was used. […] This property of pBT436-transforned Gif106M1 was used to select for mutations in lysC that encoded lysine-insensitive AKIII.

Test [2] concerns the target T1, AKII-HDHII (HDH activity) (Escherichia coli, UniProt P00562).
T1 construct: The primers also add a Kpn I site immediately following the translation stop codon; made in house; host or cells: E. coli BL21(DE3), pBT430-derived T7 vector; supernatant of sonicated cells (clone 5, plasmid pBT718)
The test can be described thus: HDH activity of AKII-HDHII extract (clone 5), inhibition by pathway end-products. The test is classed as biochemical, E. coli. The note with it: 30 mM end-product; extract from clone 5.
Description: The cells were collected by centririgation and resuspended in 1/25th the original culture volume in 50 mM NaCl; 50 mM Tris-Cl, pH 7.5; 1 mM EDTA, and frozen at −20° C., thawed at 37° C. and sonicated, in an ice-water bath, to lyse the cells. The lysate was centrifuged at 4° C. for 5 min at 12,000 rpm. The supernatant was removed and the pellet was resuspended in the above buffer. The supernatant fractions were assayed for HDH enzyme activities to identify clones expressing functional proteins. HDH activity was assayed as shown below: HDH ASSAY
Make Mixture of above reagents with amounts multiplied by number of assays. Use 0.9 mL of mix for 1 mL assay; 180 μL of mix for 0.2 mL assay in microtiter dish
to ½ the assay mix; remaining ½ lacks ASA to serve as blank
Add enzyme extract last to start reaction. Incubate at ˜30° C.; monitor NADPH oxidation at 340 nM. 1 unit oxidizes 1 μmol NADPH/min at 30° C. in the 1 mL reaction.

Another test addresses T2, AKII-HDHII (AK activity) (Escherichia coli, UniProt P00562).
T2 construct: The primers also add a Kpn I site immediately following the translation stop codon; made in house; host or cells: E. coli BL21(DE3), pBT430-derived T7 vector; supernatant of sonicated cells (clone 5, plasmid pBT718)
The test can be described thus: AK activity of AKII-HDHII extract (clone 5), inhibition by pathway end-products. The test is classed as biochemical, E. coli. The note with it: 30 mM end-product; extract from clone 5. On the procedure:
These four were then assayed for AK activity. AK activity was assayed as shown below:
(§1) Assay mix (for 12×1.0 mL or 48×0.25 mL assays): • 2.5 mL H2O • 2.0 mL 4M KOH • 2.0 mL 4M NH2OH—HCl • 1.0 mL 1M Tris-HCl pH 8.0 • 0.5 mL 0.2M ATP (121 mg/ml in 0.2M NaOH) • 50 μL 1M MgSO4
pH of assay mix should be 7-8
(§2) Each 1.5 mL eppendorf assay tube contains:
(§3) Assay tubes are incubated at 30° C. for 30-60 min […];
(§4) Spin for 2 min in eppendorf centrifuge tube. Read OD at […].
Two extracts also had high levels of AK enzyme activity. These two extracts were then tested for inhibition of AK or HDH activity by the pathway end-products, lys, thr and met.

Test [3] concerns the target T3, wild type AKIII (Escherichia coli, UniProt P08660).
T3 construct: made in house; host or cells: E. coli Gif106M1 (lacks all AK activity) transformed with pBT436
The test can be described thus: Lysine inhibition of wild type AKIII aspartokinase activity. The test is classed as biochemical, E. coli. On the procedure:
(§5) Single colonies of Gif106M1 transformed with pBT436 were picked and resuspended in 200 μL of a mixture of 100 μL 1% lysine plus 100 μL of M9 media. The entire cell suspension containing 10^7-10^8 cells was spread on a petri dish containing M9 media supplemented with the arginine, isoleucine, and ampicillin. Sixteen petri dishes were thus prepared. From 1 to 20 colonies appeared on 11 of the 16 petri dishes. One or two (if available) colonies were picked and retested for lysine resistance and from this nine lysine-resistant clones were obtained. Plasmid DNA was prepared from eight of these and re-transformed into Gif106M1 to determine whether the lysine resistance determinant was plasmid-borne. Six of the eight plasmid DNAs yielded lysine-resistant colonies. Three of these six carried lysC genes encoding AKIII that was uninhibited by 15 mM lysine, whereas wild type AKIII is 50% inhibited by 0.3-0.4 mM lysine and >90% inhibited by 1 mM lysine.
as §1, §2, §3, §4

Test [4] concerns the target T4, wild type AKIII (Escherichia coli, UniProt P08660, G401A).
T4 construct: made in house; host or cells: E. coli Gif106M1 (lacks all AK activity) transformed with pBT436
The description is as above. The test is classed as biochemical, E. coli. The note with it: read-out: inhibition of AKIII. Here is the method:
as §5, §1, §2, §3, §4

Test [5] concerns the target T5, AKIII encoded by mutant lysC genes (lysine-insensitive) (Escherichia coli, UniProt P08660, G401A/T352I).
T5 construct: made in house; host or cells: E. coli Gif106M1 carrying mutated pBT436 plasmids
In kind it is biochemical, E. coli. The note with it: 15 mM lysine; three mutant lysC genes (M2, M3, M4). On the procedure:
as §5
The sequences of the three mutant lysC genes that encoded lysine-insensitive AK each differed from the wild type sequence by a single nucleotide, resulting in a single amino acid substitution in the protein. […] Thus, either of these single amino acid substitutions is sufficient to render the AKIII enzyme insensitive to lysine inhibition. […]
as §4

Where only a bound is given, the exact number is not on record here.

T1 sequence (P00562 other isoform, or with tags, fused parts or gaps): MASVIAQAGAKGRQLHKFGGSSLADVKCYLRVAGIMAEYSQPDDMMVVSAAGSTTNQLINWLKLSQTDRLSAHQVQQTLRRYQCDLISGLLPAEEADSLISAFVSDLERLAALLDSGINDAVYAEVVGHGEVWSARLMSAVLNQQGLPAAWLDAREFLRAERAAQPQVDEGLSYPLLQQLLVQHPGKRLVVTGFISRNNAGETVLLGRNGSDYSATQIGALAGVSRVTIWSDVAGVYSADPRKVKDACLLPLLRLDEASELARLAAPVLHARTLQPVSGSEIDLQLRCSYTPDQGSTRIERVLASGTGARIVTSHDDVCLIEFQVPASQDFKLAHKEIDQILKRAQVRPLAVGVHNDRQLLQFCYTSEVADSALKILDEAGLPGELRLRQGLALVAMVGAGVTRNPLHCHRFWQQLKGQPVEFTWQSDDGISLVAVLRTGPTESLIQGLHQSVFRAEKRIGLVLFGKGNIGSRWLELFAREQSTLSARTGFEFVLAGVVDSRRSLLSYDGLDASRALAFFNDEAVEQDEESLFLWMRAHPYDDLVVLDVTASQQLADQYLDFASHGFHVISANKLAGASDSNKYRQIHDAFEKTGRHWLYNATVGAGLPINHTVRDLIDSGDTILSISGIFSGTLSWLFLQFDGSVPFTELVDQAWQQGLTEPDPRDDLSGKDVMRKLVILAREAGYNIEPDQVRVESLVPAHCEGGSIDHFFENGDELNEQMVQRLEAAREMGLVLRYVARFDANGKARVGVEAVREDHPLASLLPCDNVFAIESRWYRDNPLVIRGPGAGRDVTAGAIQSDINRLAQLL
T2 sequence (P00562 other isoform, or with tags, fused parts or gaps): as above
T3 sequence (P08660 2-449 G401A): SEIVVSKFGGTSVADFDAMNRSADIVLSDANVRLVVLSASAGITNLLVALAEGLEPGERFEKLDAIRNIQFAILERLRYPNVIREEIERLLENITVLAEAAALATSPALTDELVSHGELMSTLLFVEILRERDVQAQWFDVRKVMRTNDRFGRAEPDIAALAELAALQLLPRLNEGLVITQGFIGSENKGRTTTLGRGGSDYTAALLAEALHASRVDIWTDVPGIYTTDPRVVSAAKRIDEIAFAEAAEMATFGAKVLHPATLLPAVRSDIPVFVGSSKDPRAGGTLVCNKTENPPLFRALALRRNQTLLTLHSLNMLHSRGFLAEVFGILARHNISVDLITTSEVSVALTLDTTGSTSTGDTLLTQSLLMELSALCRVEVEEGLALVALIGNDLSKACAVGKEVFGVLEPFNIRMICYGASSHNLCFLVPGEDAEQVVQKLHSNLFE
T4 sequence (P08660 2-449 G401A): as above
T5 sequence (P08660 2-449 T352I/G401A): as the sequence (P08660 2-449 G401A) above, with T351I counted along it

For the compound `NC(CCCC(N)C(=O)O)C(=O)O` (centres unmarked) [diaminopimelate], the “concentration in growth medium that inhibits growth” value in test [1] is listed as “approximately 0.2 mM”.

On to `C[C@@H](O)[C@H](N)C(=O)O` [threonine], for which, in test [2], the “inhibition of HDH activity” value is “Neither the AK nor the HDH activity of the extract from clone 5 was inhibited”. The “inhibition of AK activity” value at AKII-HDHII (AK activity) is listed as “Neither the AK nor the HDH activity of the extract from clone 5 was inhibited”.

For `CSCC[C@H](N)C(=O)O` [methionine], the “inhibition of HDH activity” value in test [2] is on record as “Neither the AK nor the HDH activity of the extract from clone 5 was inhibited”. For the same compound, the “inhibition of AK activity” value at AKII-HDHII (AK activity) is reported as “Neither the AK nor the HDH activity of the extract from clone 5 was inhibited”.

Compound `NCCCC[C@H](N)C(=O)O` [lysine] registered an IC50 against wild type AKIII [3] of 300 to 400 µM. On wild type AKIII [4], the inhibition at 1000 µM was more than 90%. Also, the “concentration in growth medium that inhibits growth” value in test [1] is “approximately 0.2 mM”. In addition, the “inhibition of HDH activity” value in test [2] is listed as “Neither the AK nor the HDH activity of the extract from clone 5 was inhibited”. The “inhibition of mutant AKIII” value in test [5] is reported as “uninhibited”. In addition, the “inhibition of AK activity” value against AKII-HDHII (AK activity) was “Neither the AK nor the HDH activity of the extract from clone 5 was inhibited”.

Usually IC50 stands for the midpoint of a concentration-inhibition curve. Low values mean inhibition by little substance, high ones a need for much substance. The inhibition is the drop in the measured response relative to a control, in per cent.
